Test results: patent US8067442B2, “Heterocyclic antiviral compounds” (Roche Palo Alto LLC, priority 2008, dated 2011)

Tests used:
[1] = molecular target: T1, HCV polymerase (NS5B570n-Con1) (Hepatitis C virus genotype 1b, UniProt Q9WMX2); assay: biochemical; parameters: species or system HCV Con1 strain
T1 construct: a 21 amino acid C-terminal deletion of full-length HCV polymerase; made in house; host or cells: E. coli BL21(DE3) pLysS, plasmid pET17b

[2] = test system: HCV replicon cells (2209-23), genotype 1b replicon in human hepatoma Huh7 cells; assay: HCV replicon assay (Renilla luciferase reporter); type: cell-based, HCV genotype 1b; conditions: Hepatitis C virus, Huh-7, 72 h; 2209-23 cells, three days incubation
in vitro = conditions: human
HCV = conditions: cited from earlier work

| Structure (SMILES) | IC50 [1] [nM] | IC50 [2] [nM] | melting point [°C] | CC50 (in vitro) [nM] | serum levels of HCV-RNA (HCV; monotherapy / sole treatment) | patients in whom serum amino transferase levels are reduced to normal (HCV; monotherapy) [%] |
| --- | --- | --- | --- | --- | --- | --- |
| CC(C)(C)c1cc(-c2ccc[nH]c2=O)cc2c(-c3cccc(C(N)=O)c3)coc12 [Compound I-78, 3-[7-tert-Butyl-5-(2-oxo-1,2-dihydro-pyridin-3-yl)-benzofuran-3-yl]-benzamide] | 9 | 78 | 190 to 193 | 12400 |  |  |
| CC(C)(C)c1cc(-c2ccc[nH]c2=O)cc2c(-c3ccc(NS(C)(=O)=O)cc3)coc12 [Compound I-79, N-{4-[7-tert-Butyl-5-(2-oxo-1,2-dihydro-pyridin-3-yl)-benzofuran-3-yl]-phenyl}-methanesulfonamide] | 27 |  | 182 to 184 |  |  |  |
| CC(C)(C)c1cc(-c2ccc[nH]c2=O)cc2c(C(=O)N3CCC(NS(C)(=O)=O)CC3)coc12 [Compound I-99] | 876 |  | 193 to 195 |  |  |  |
| Cc1ccc(-c2coc3c(C(C)(C)C)cc(-c4ccc[nH]c4=O)cc23)nc1 [Compound I-91, 3-[7-tert-Butyl-3-(5-methyl-pyridin-2-yl)-benzofuran-5-yl]-1H-pyridin-2-one] | 326 |  | 295 to 297 |  |  |  |
| CC(C)(C)c1cc(-c2ccc[nH]c2=O)cc2c(-c3ccc(N)nc3)coc12 [Compound I-96, 3-[3-(6-Amino-pyridin-3-yl)-7-tert-butyl-benzofuran-5-yl]-1H-pyridin-2-one] | 47 |  | 255 to 257 |  |  |  |
| NC(=O)c1ncn([C@@H]2O[C@H](CO)[C@@H](O)[C@H]2O)n1 [ribavirin, 1-((2R,3R,4S,5R)-3,4-Dihydroxy-5-hydroxymethyl-tetrahydro-furan-2-yl)-1H-[1,2,4]triazole-3-carboxylic acid amide] |  |  |  |  | does not lower | 40 |
| CC(C)(C)c1cc(-c2ccc[nH]c2=O)cc2c(C(=O)N3CCC[C@H](CNS(C)(=O)=O)C3)coc12 [Compound I-100] | 8 | 14 |  |  |  |  |
| CC(C)(C)c1cc(-c2ccc[nH]c2=O)cc2c(CC(=O)O)coc12 [Compound I-6, [7-tert-Butyl-5-(2-oxo-1,2-dihydro-pyridin-3-yl)-benzofuran-3-yl]-acetic acid] | 358 |  | 233 to 234 |  |  |  |
| CC(C)(C)c1cc(-c2ccc[nH]c2=O)cc2c(C(=O)N3CC(O)C3)coc12 [Compound I-102] | 135 |  | 264 to 266 |  |  |  |
| CC(C)(C)c1cc(-c2ccc[nH]c2=O)cc2c(-c3ccc(N)cc3)coc12 [Compound I-86] |  | 346 | 248 to 250 | 29200 |  |  |
